Measurements from PubChem BioAssay (NCI).
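GI50 = concentration required for 50% inhibition of growth. Definition used: TGI = concentration required for complete inhibition of growth.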

Assays:
Assay in all cases: growth of human tumour cells (NCI), 384-well format
[1] = test system: SF-268 CNS
[2] = test system: NCI-H226 lung
[3] = test system: HL-60(TB) leukemia
[4] = test system: MALME-3M melanoma
[5] = test system: SK-MEL-28 melanoma
[6] = test system: SK-MEL-2 melanoma
[7] = test system: SF-539 CNS
[8] = test system: A498 renal
[9] = test system: SN12C renal
[10] = test system: M14 melanoma
[11] = test system: OVCAR-4 ovarian
[12] = test system: MCF7 breast
[13] = test system: RXF 393 renal
[14] = test system: OVCAR-8 ovarian
[15] = test system: SW-620 colon
[16] = test system: HT29 colon
[17] = test system: NCI-H522 lung
[18] = test system: A549 NSCLC
[19] = test system: OVCAR-3 ovarian
[20] = test system: HCT-15 colon
[21] = test system: SR leukemia
[22] = test system: TK-10 renal
[23] = test system: MDA-MB-435 melanoma
[24] = test system: COLO 205 colon
[25] = test system: MOLT-4 leukemia
[26] = test system: U251 glioblastoma
[27] = test system: OVCAR-5 ovarian
[28] = test system: SNB-75 CNS
[29] = test system: HS 578T breast
[30] = test system: MDA-MB-231 breast
[31] = test system: HCT-116 colon
[32] = test system: SK-OV-3 ovarian
[33] = test system: SK-MEL-5 melanoma
[34] = test system: EKVX NSCLC
[35] = test system: DU-145 prostate
[36] = test system: 786-0 renal
[37] = test system: UO-31 renal
[38] = test system: IGROV1 ovarian
[39] = test system: HOP-92 NSCLC
[40] = test system: SNB-19 CNS
[41] = test system: MDA-MB-468 breast
[42] = test system: NCI-H460 NSCLC
[43] = test system: BT-549 breast
[44] = test system: CAKI-1 renal
[45] = test system: ACHN renal
[46] = test system: HOP-62 NSCLC
[47] = test system: T-47D breast
[48] = test system: SF-295 CNS
[49] = test system: KM12 colon
[50] = test system: K-562 leukemia
[51] = test system: PC-3 prostate
[52] = test system: NCI-H23 lung
[53] = test system: UACC-257 melanoma
[54] = test system: UACC-62 melanoma
[55] = test system: NCI-H322M lung

Cn1cc(-c2ccc(CNc3cc(-c4cnc5cc(OCCCN6CCCC6)ccn45)ncn3)cc2)cn1
GI50 [1]: 1850 nM | TGI [1]: 3280 nM | GI50 [2]: 1690 nM | TGI [2]: 3060 nM | GI50 [3]: 1560 nM | TGI [3]: 2900 nM | GI50 [4]: 1830 nM | TGI [4]: 3230 nM | GI50 [5]: 1820 nM | TGI [5]: 3220 nM | GI50 [6]: 1840 nM | TGI [6]: 3240 nM | GI50 [7]: 1180 nM | TGI [7]: 2410 nM | GI50 [8]: 1780 nM | TGI [8]: 3180 nM | GI50 [9]: 1770 nM | TGI [9]: 3160 nM | GI50 [10]: 1840 nM | TGI [10]: 3240 nM | GI50 [11]: 1550 nM | TGI [11]: 2910 nM | GI50 [12]: 1360 nM | TGI [12]: 2670 nM | GI50 [13]: 1530 nM | TGI [13]: 2870 nM | GI50 [14]: 1720 nM | TGI [14]: 3110 nM | GI50 [15]: 1690 nM | TGI [15]: 3090 nM | GI50 [16]: 969 nM | TGI [16]: 2150 nM | GI50 [17]: 2090 nM | TGI [17]: 3530 nM | GI50 [18]: 1820 nM | TGI [18]: 3230 nM | GI50 [19]: 1840 nM | TGI [19]: 3250 nM | GI50 [20]: 1770 nM | TGI [20]: 3200 nM | GI50 [21]: 1690 nM | TGI [21]: 3070 nM | GI50 [22]: 1780 nM | TGI [22]: 3180 nM | GI50 [23]: 1770 nM | TGI [23]: 3170 nM | GI50 [24]: 2010 nM | TGI [24]: 3450 nM | GI50 [25]: 1500 nM | TGI [25]: 2830 nM | GI50 [26]: 1790 nM | TGI [26]: 3200 nM | GI50 [27]: 1690 nM | TGI [27]: 3090 nM | GI50 [28]: 1790 nM | TGI [28]: 3190 nM | GI50 [29]: 1580 nM | TGI [29]: 2930 nM | GI50 [30]: 1610 nM | TGI [30]: 2970 nM | GI50 [31]: 1630 nM | TGI [31]: 3020 nM | GI50 [32]: 1800 nM | TGI [32]: 3210 nM | GI50 [33]: 1490 nM | TGI [33]: 2820 nM | GI50 [34]: 1670 nM | TGI [34]: 3060 nM | GI50 [35]: 1820 nM | TGI [35]: 3340 nM | GI50 [36]: 1540 nM | TGI [36]: 2890 nM | GI50 [37]: 1750 nM | TGI [37]: 3140 nM | GI50 [38]: 1880 nM | TGI [38]: 3340 nM | GI50 [39]: 1840 nM | TGI [39]: 3250 nM | GI50 [40]: 1740 nM | TGI [40]: 3410 nM | GI50 [41]: 1800 nM | TGI [41]: 3210 nM | GI50 [42]: 1320 nM | TGI [42]: 2620 nM | GI50 [43]: 1620 nM | TGI [43]: 2980 nM | GI50 [44]: 1860 nM | TGI [44]: 3260 nM | GI50 [45]: 1810 nM | TGI [45]: 3210 nM | GI50 [46]: 1630 nM | TGI [46]: 3000 nM | GI50 [47]: 1900 nM | TGI [47]: 3330 nM | GI50 [48]: 1810 nM | TGI [48]: 3220 nM | GI50 [49]: 1850 nM | TGI [49]: 3290 nM | GI50 [50]: 1500 nM | TGI [50]: 2850 nM | GI50 [51]: 1700 nM | TGI [51]: 3280 nM | GI50 [52]: 11300 nM | TGI [52]: 23500 nM | GI50 [53]: 1530 nM | TGI [53]: 2870 nM | GI50 [54]: 1830 nM | TGI [54]: 3230 nM | GI50 [55]: 1920 nM | TGI [55]: 3570 nM
